Source: PubChem BioAssay (NCI)
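Growth conditions: 96-well plates. Treatment: test compound, 48 hours, 5 concentrations. Analysis: linear interpolation between bracketing concentrations; unreached endpoints set to highest concentration. TGI is the concentration that stops growth completely.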

Legend:
Assay in all cases: DTP human tumour cell line panel, 48 h
[1] = test system: MALME-3M melanoma
[2] = test system: SK-MEL-2 melanoma
[3] = test system: OVCAR-5 ovarian
[4] = test system: KM12 colon
[5] = test system: HCT-15 colon
[6] = test system: OVCAR-4 ovarian
[7] = test system: MDA-N
[8] = test system: HL-60(TB) leukemia
[9] = test system: HOP-62 NSCLC
[10] = test system: RXF 393 renal
[11] = test system: NCI-H226 lung
[12] = test system: SN12C renal
[13] = test system: HCT-116 colon
[14] = test system: U251 CNS
[15] = test system: SK-OV-3 ovarian
[16] = test system: ACHN renal
[17] = test system: CCRF-CEM leukemia
[18] = test system: M14 melanoma
[19] = test system: NCI-H23 lung
[20] = test system: DU-145 prostate
[21] = test system: CAKI-1 renal
[22] = test system: MCF7 breast
[23] = test system: SF-539 CNS
[24] = test system: MOLT-4 leukemia
[25] = test system: A549 NSCLC
[26] = test system: UACC-62 melanoma
[27] = test system: COLO 205 colon
[28] = test system: MDA-MB-231 breast
[29] = test system: SNB-19 CNS
[30] = test system: OVCAR-8 ovarian
[31] = test system: SF-268 CNS
[32] = test system: NCI-H460 lung
[33] = test system: K-562 leukemia
[34] = test system: IGROV1 ovarian
[35] = test system: HCC-2998 colon
[36] = test system: SW-620 colon
[37] = test system: SK-MEL-5 melanoma
[38] = test system: HS 578T breast
[39] = test system: SF-295 CNS
[40] = test system: HOP-92 NSCLC
[41] = test system: A498 renal
[42] = test system: T-47D breast
[43] = test system: NCI-H522 lung
[44] = test system: UACC-257 melanoma
[45] = test system: TK-10 renal
[46] = test system: RPMI-8226 leukemia
[47] = test system: LOX IMVI melanoma
[48] = test system: MDA-MB-435
[49] = test system: PC-3 prostate
[50] = test system: SNB-75 CNS
[51] = test system: SK-MEL-28 melanoma
[52] = test system: OVCAR-3 ovarian
[53] = test system: BT-549 breast
[54] = test system: HT29 colon
[55] = test system: 786-0 renal
[56] = test system: SR leukemia
[57] = test system: EKVX NSCLC
[58] = test system: NCI/ADR-RES ovarian
[59] = test system: UO-31 renal

CN(C)c1ccc(/C=C2\N=C(c3ccc([N+](=O)[O-])cc3)OC2=O)cc1
TGI [1]: > 100 µM | TGI [2]: > 100 µM | TGI [3]: > 100 µM | TGI [4]: > 100 µM | TGI [5]: 45.4 µM | TGI [6]: > 100 µM | TGI [7]: > 100 µM | TGI [8]: 87.9 µM | TGI [9]: > 100 µM | TGI [10]: > 100 µM | TGI [11]: > 100 µM | TGI [12]: > 100 µM | TGI [13]: > 100 µM | TGI [14]: > 100 µM | TGI [15]: > 100 µM | TGI [16]: > 100 µM | TGI [17]: 97.9 µM | TGI [18]: > 100 µM | TGI [19]: > 100 µM | TGI [20]: > 100 µM | TGI [21]: > 100 µM | TGI [22]: > 100 µM | TGI [23]: > 100 µM | TGI [24]: > 100 µM | TGI [25]: > 100 µM | TGI [26]: > 100 µM | TGI [27]: > 100 µM | TGI [28]: > 100 µM | TGI [29]: > 100 µM | TGI [30]: > 100 µM | TGI [31]: > 100 µM | TGI [32]: > 100 µM | TGI [33]: > 100 µM | TGI [34]: > 100 µM | TGI [35]: 72.4 µM | TGI [36]: > 100 µM | TGI [37]: > 100 µM | TGI [38]: > 100 µM | TGI [39]: > 100 µM | TGI [40]: 97 µM | TGI [41]: > 100 µM | TGI [42]: > 100 µM | TGI [43]: > 100 µM | TGI [44]: > 100 µM | TGI [45]: > 100 µM | TGI [46]: > 100 µM | TGI [47]: 61.2 µM | TGI [48]: > 100 µM | TGI [49]: > 100 µM | TGI [50]: > 100 µM | TGI [51]: > 100 µM | TGI [52]: > 100 µM | TGI [53]: > 100 µM | TGI [54]: > 100 µM | TGI [55]: > 100 µM | TGI [56]: 86.9 µM | TGI [57]: > 100 µM

CO/N=C(/C(=O)N(C(=O)/C(=N/OC)c1csc(NC(c2ccccc2)(c2ccccc2)c2ccccc2)n1)n1cnn(CC(=O)OC(C)(C)C)c1=O)c1csc(NC(c2ccccc2)(c2ccccc2)c2ccccc2)n1
TGI [1]: > 10 µM | TGI [2]: 3.92 µM | TGI [3]: > 10 µM | TGI [4]: > 10 µM | TGI [5]: > 10 µM | TGI [6]: > 10 µM | TGI [7]: > 10 µM | TGI [8]: > 10 µM | TGI [9]: > 10 µM | TGI [10]: > 10 µM | TGI [11]: > 10 µM | TGI [12]: > 10 µM | TGI [13]: > 10 µM | TGI [14]: > 10 µM | TGI [15]: > 10 µM | TGI [16]: > 10 µM | TGI [17]: > 10 µM | TGI [18]: > 10 µM | TGI [19]: > 10 µM | TGI [20]: > 10 µM | TGI [21]: > 10 µM | TGI [22]: > 10 µM | TGI [23]: > 10 µM | TGI [24]: > 10 µM | TGI [25]: > 10 µM | TGI [26]: > 10 µM | TGI [27]: > 10 µM | TGI [58]: > 10 µM | TGI [28]: > 10 µM | TGI [29]: > 10 µM | TGI [30]: > 10 µM | TGI [31]: > 10 µM | TGI [32]: > 10 µM | TGI [33]: > 10 µM | TGI [34]: > 10 µM | TGI [35]: > 10 µM | TGI [36]: > 10 µM | TGI [37]: > 10 µM | TGI [38]: > 10 µM | TGI [39]: > 10 µM | TGI [41]: > 10 µM | TGI [42]: > 10 µM | TGI [43]: > 10 µM | TGI [44]: > 10 µM | TGI [45]: > 10 µM | TGI [46]: > 10 µM | TGI [47]: > 10 µM | TGI [48]: > 10 µM | TGI [49]: 3.44 µM | TGI [50]: > 10 µM | TGI [51]: > 10 µM | TGI [59]: > 10 µM | TGI [52]: > 10 µM | TGI [53]: 3.96 µM | TGI [54]: > 10 µM | TGI [55]: > 10 µM | TGI [57]: > 10 µM
